The text below walks through data of patent US9006171B2, “Angiotensin converting enzyme inhibitory peptide” (Kikkoman Corporation, priority 2009, dated 2015).

The term IC50 denotes the concentration that inhibits the measured activity by half.

Non-standard residues stand in square brackets, D forms with d. Residues, ends and D or L forms follow the SMILES beside them. pGlu = O=C1CC[C@@H](C(=O)O)N1

For this assay, the target named is T1, ACE (rabbit lung-derived) (Oryctolagus cuniculus, UniProt P12822).
T1 construct: 0.3 U/ml of ACE (rabbit lung-derived, manufactured by SIGMA); purchased SIGMA; host or cells: rabbit lung (tissue-derived)
T1 sequence (P12822 34-1310): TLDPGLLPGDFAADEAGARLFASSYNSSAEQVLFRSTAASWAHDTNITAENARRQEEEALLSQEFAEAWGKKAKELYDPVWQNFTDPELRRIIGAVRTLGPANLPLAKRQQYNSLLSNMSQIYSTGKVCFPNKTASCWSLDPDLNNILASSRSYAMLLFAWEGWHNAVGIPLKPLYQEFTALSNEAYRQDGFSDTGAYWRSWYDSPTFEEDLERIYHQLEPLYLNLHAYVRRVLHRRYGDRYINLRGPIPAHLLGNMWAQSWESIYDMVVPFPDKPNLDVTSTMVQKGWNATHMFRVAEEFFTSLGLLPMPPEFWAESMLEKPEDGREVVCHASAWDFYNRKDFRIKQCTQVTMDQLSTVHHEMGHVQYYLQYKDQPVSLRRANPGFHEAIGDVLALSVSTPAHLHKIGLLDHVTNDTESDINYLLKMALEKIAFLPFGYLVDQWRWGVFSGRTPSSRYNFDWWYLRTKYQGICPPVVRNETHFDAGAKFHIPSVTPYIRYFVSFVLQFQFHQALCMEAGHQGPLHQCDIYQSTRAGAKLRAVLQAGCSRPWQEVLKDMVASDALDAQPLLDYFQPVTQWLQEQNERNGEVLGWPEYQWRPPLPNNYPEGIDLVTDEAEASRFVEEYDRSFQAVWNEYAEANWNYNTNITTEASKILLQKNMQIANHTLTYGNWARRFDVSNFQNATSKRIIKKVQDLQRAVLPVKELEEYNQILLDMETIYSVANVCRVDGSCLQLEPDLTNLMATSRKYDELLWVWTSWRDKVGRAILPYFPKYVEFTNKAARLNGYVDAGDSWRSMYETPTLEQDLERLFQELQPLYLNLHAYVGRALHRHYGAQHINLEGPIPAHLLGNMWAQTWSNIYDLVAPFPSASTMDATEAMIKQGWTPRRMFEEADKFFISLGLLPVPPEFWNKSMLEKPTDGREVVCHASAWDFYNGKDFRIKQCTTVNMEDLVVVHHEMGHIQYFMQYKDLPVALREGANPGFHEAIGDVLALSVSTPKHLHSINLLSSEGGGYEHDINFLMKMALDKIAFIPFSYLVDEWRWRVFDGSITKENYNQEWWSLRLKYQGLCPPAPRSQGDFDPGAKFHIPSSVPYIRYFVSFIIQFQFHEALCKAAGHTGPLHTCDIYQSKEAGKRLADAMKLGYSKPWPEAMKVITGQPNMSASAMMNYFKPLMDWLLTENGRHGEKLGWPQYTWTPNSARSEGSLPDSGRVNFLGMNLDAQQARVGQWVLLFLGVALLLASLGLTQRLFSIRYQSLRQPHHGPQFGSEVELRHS
As to the kind of experiment: ACE inhibitory activity (modified method of Yamamoto et al., Hippuryl-His-Leu substrate). In kind it is biochemical. The note with it: pH 8.3, 37° C., 30 minutes, chemically synthesized peptides. On the procedure:
ACE inhibitory activity of the peptides obtained by the aforementioned synthesis method was measured. As the measuring method, it was carried out by a method in which the method of Yamamoto et al. (Setsuko Yamamoto et al., Journal of the Japan Society of Chest Diseases, 1980, 18, p. 297-302) was partially modified. Namely, 140 μl of sample solution, 10 μl of enzyme solution (0.3 U/ml of ACE (rabbit lung-derived, manufactured by SIGMA) and 50 mM borate buffer (pH 8.3) were added to 100 μl of a substrate solution (12.5 mM Hippuryl-His-Leu (manufactured by SIGMA), 100 mM borate buffer pH 8.3, 1M NaCl), and the reaction was carried out at 37° C. for 30 minutes. Subsequently, the reaction was stopped by adding 250 μl of 1 N hydrochloric acid and, after stirring by adding 1.5 ml of ethyl acetate and subsequent centrifugation, 1 ml of the ethyl acetate layer was concentrated and dried by centrifugal concentration followed by dissolution in 1 ml of ultrapure water to measure the absorbance at 228 nm. The ACE inhibitory ratio is represented by the following formula. ACE inhibitory ratio (%)={1−(ODs−ODsb)/(ODc−ODcb)}×100
In this connection, ODs is the absorbance when the reaction was carried out by adding the enzyme solution to a sample as described above; ODsb is the absorbance when ultrapure water was added instead of the enzyme solution; ODc is the absorbance when ultrapure water was added instead of the sample solution; and ODcb is the absorbance when ultrapure water was added instead of the enzyme solution and sample solution. Additionally, the concentration of a sample which gives 50% of the enzyme activity inhibitory ratio on this reaction system is regarded as the IC50 value.
Regarding `C[C@@H](O)[C@H](NC(=O)[C@@H](N)Cc1ccc(O)cc1)C(=O)O` [Tyr-Thr] (H-Tyr-Thr-OH), the IC50 was determined as 35 µM. This lies in the double-digit micromolar range.

`NC(=O)C[C@H](N)C(=O)N[C@@H](Cc1c[nH]c2ccccc12)C(=O)O` [Asn-Trp] (H-Asn-Trp-OH; N-terminus and C-terminus assumed): half-maximal inhibition (IC50) was put at 25 µM. As for `O=C1CC[C@@H](C(=O)N2CCC[C@H]2C(=O)O)N1` [pyroGlu-Pro] ([pGlu]-Pro-OH; C-terminus assumed), the figure is 106 µM; as for `O=C(O)[C@H](Cc1c[nH]c2ccccc12)NC(=O)[C@@H]1CCCN1` [Pro-Trp] (H-Pro-Trp-OH; N-terminus and C-terminus assumed), 186 µM.
